Values joined by “and” are separate entries in the source; they are usually repeats but may differ in a detail not shown here. Identical values can stand only once. “Also recorded” adds a separate entry of the source.
What was measured:
[1] = tested on: non-malignant control PNT1a cells; assay: Staining of prostate cells with lipid dyes, PNT1a; assay type: cell-based, Human; details: PNT1a fixed in 4% paraformaldehyde, 30 minutes
Description: (§1) The fluorescent dyes, Filipin and BODIPY® 493/503, were incubated for 30 minutes with each of the four prostate cell lines (i.e. PNT1a, DU145, 22RV1 and LNCaP), fixed in 4% paraformaldehyde and imaged under confocal microscopy, which was supplemented with two-photon Mai-Tai® and Argon lasers. Prostate cell lines grown on coverslips were stained with ReZolve-L1™ and IraZolve [Ir(ppy)2(TzPyCN)] in serum-free media for 30 minutes at 37° C. and 5% CO2 and imaged in live mode, avoiding the process of fixation. From this experiment, different staining patterns between prostate cell lines and the fluorescent dyes were clearly seen (FIG. 12). For example, the level of diffuse cytosolic staining vs membrane staining with Filipin varied between cell lines (FIG. 12 a-d). […] Differences in the 22RV1 and LNCaP staining pattern in comparison to PNT1a and DU145 were apparent with BODIPY® 493/503 fluorescent dye. […] The fluorescence of ReZolve-L1™ was low in non-malignant control PNT1a cells, when compared to prostate cancer cells (FIG. 12i-l). […] These positive results prompted us to analyse staining of the prostate cells with the fluorescent dye IraZolve (FIG. 12m-p). […] In contrast, the intensity of staining in the malignant cell lines DU145, 22RV1 and LNCaP with ReZolve-L1™ was significant. […]

[2] = tested on: prostate cancer 22RV1 cells; assay: Staining of prostate cells with lipid dyes, 22RV1; assay type: cell-based, Human; details: 22RV1 fixed in 4% paraformaldehyde, 30 minutes
Description: as §1

[3] = tested on: prostate cancer DU145 cells; assay: Staining of prostate cells with lipid dyes, DU145; assay type: cell-based, Human; details: DU145 fixed in 4% paraformaldehyde, 30 minutes
Description: as §1

[4] = tested on: prostate cancer LNCaP cells; assay: Staining of prostate cells with lipid dyes, LNCaP; assay type: cell-based, Human; details: 30 minutes
Description: as §1

[5] = previously published complex; cited from earlier work
[6] = Lipophilicity by shake-flask method (7.4-buffered PBS / n-octanol); assay type: physicochemical; details: 7.4-buffered PBS solution and n-octanol
[7] = Photophysical measurements (absorption, emission, lifetime, quantum yield) in diluted solutions; assay type: physicochemical

CC1=CC(C)=[N+]2C1=C(C)c1c(C)cc(C)n1[B-]2(F)F [BODIPY® 493/503, reference compound]
staining pattern [1]: localised staining to lipid droplets | staining pattern [2]: diffused cytosolic staining and localised staining to lipid droplets | staining pattern [3]: localised staining to lipid droplets

CCCCC[C@@H](O)[C@H]1C(=O)O[C@H](C)[C@@H](O)/C=C/C=C/C=C/C=C/C=C(\C)[C@@H](O)C[C@H](O)C[C@H](O)C[C@H](O)C[C@H](O)C[C@H](O)C[C@@H]1O [Filipin, reference compound]
staining pattern [1]: a number of small vesicles were brightly stained | staining pattern [2]: quite bright vesicular and plasma membrane staining | staining pattern ([4]; LNCaP fixed in 4% paraformaldehyde): a number of small vesicles were brightly stained | staining pattern [3]: relatively low level

c1cc[c]2c(c1)-c1cccc[n+]1[Ir]213([c]2ccccc2-c2cccc[n+]21)[n]1nnnc1-c1cccc[n+]13 [[Ir(ppy)2(TzPy)]]
λem, structured emission [5]: 481 nm and 510 nm

N#Cc1ccc2[n+](c1)[Ir]13([c]4ccccc4-c4cccc[n+]41)([c]1ccccc1-c1cccc[n+]13)[n]1nnnc1-2 [[Ir(ppy)2(TzPyCN)]]
logD7.4, distribution coefficient [6]: 2.09 ± 0.06 | staining pattern / intensity ([4]; live LNCaP, 20 μM, serum-free media, listed as IraZolve): stains the endoplasmic reticulum, where both phospholipids and triacylglycerides are synthesised, and it also co-localises with fatty acids in lipid droplets; also recorded: almost identical to that observed for ReZolve-L1™; also recorded: significantly greater | Absorption λabs [nm] (10^4ε [M^−1cm^−1]) ([7]; DCM, 10^−5 M): 263 (6.57) nm (10^4ε [M^−1cm^−1]) and 339 (1.59) nm (10^4ε [M^−1cm^−1]) and 382 (1.09) nm (10^4ε [M^−1cm^−1]) and 420 (0.58) nm (10^4ε [M^−1cm^−1]) | Emission λem ([7]; DCM, 298K, 10^−5 M): 618 nm | τaer, excited state lifetime (relative weight in parentheses) ([7]; DCM, aerated, 298K): 131 ns | Φaer, quantum yield ([7]; DCM, aerated, versus Ru(bpy)3^2+ in water (φr = 0.028)): 0.055 | τdeaer, excited state lifetime (relative weight in parentheses) ([7]; DCM, deaerated, 298K): 529 ns | Φdeaer, quantum yield ([7]; DCM, deaerated, versus Ru(bpy)3^2+ in water (φr = 0.028)): 0.397 | knr ([7]; DCM, calculated as [(1 − φ)/τ] from deaerated solutions): 1.140 10^6s^−1 | kr ([7]; DCM, calculated as [φ/τ] from deaerated solutions): 7.505 10^5s^−1 | Emission λem ([7]; H2O with 0.1% DMSO, 298K, aerated): 618 nm | Φ, quantum yield ([7]; H2O with 0.1% DMSO, aerated, versus Ru(bpy)3^2+ in water): 0.047

Reference: patent US20190226949A1, “IRIDIUM COMPLEXES FOR CELLULAR IMAGING” (UNIVERSITY OF SOUTH AUSTRALIA, priority 2016, published 2019)
